Data from patent US8476298B2 (Exelixis, Inc., priority 2003, dated 2013).
Read-outs that look alike come from different tables or passages of the source.

Key:
[1] = molecular target: T1, c-Met (baculovirus expressed human c-Met kinase domain P948-S1343) (Homo sapiens, UniProt P08581); assay: c-Met Luciferase-Coupled Chemiluminescent Kinase assay (LCCA); assay type: biochemical;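 also: kinase activity read as percent ATP left after reaction, by luciferase-luciferin chemiluminescence, with 1 µM ATP and 1 µM poly-EY substrate, 2 h at ambient temperature, 10-point dose-response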
T1 construct: human c-Met kinase domain P948-S1343; host or cells: baculovirus expression

[2] = molecular target: T2, KDR (baculovirus expressed human KDR kinase domain D807-V1356) (Homo sapiens, UniProt P35968); assay: biochemical;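 also: Luciferase-coupled chemiluminescent kinase assay, activity read as percent ATP left after 4 h reaction at ambient temperature, ATP near KM, 10-point dose-response in 384-well plates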
T2 construct: human KDR kinase domain D807-V1356; host or cells: baculovirus expression

[3] = molecular target: T3, Flt-3 (baculovirus expressed human Flt-3 kinase domain R571-S993) (Homo sapiens, UniProt P36888); assay: biochemical; settings: read-out: flt3 IC50;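 also: Luciferase-coupled chemiluminescent kinase assay, activity read as percent ATP left after a 3 h reaction at room temperature, ATP near KM, 10-point dose-response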
T3 construct: human Flt-3 kinase domain R571-S993; host or cells: baculovirus expression
T3 sequence (P36888 571-993): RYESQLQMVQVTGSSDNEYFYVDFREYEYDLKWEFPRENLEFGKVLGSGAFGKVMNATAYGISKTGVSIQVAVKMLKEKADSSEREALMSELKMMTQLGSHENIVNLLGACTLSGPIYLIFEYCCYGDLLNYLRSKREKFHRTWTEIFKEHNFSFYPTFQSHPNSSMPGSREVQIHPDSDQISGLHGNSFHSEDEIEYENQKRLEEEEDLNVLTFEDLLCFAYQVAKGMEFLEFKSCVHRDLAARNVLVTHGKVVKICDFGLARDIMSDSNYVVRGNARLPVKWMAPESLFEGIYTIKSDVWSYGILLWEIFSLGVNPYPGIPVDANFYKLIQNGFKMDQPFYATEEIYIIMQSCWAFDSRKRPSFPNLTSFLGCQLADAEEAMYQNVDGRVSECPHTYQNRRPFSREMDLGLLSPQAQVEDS

[4] = Table 4, inhibition as IC50 class

T1 sequence (P08581 1011-1343 limits assumed): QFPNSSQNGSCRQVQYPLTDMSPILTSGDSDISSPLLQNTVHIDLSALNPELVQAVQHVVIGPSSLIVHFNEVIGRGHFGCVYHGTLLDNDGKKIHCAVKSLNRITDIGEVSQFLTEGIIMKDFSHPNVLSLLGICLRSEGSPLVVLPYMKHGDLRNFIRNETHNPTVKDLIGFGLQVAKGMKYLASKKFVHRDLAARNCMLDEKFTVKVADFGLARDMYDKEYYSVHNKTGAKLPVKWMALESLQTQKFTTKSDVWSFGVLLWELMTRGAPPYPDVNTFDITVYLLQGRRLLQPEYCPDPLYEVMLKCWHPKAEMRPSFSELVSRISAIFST
T2 sequence (P35968 807-1356): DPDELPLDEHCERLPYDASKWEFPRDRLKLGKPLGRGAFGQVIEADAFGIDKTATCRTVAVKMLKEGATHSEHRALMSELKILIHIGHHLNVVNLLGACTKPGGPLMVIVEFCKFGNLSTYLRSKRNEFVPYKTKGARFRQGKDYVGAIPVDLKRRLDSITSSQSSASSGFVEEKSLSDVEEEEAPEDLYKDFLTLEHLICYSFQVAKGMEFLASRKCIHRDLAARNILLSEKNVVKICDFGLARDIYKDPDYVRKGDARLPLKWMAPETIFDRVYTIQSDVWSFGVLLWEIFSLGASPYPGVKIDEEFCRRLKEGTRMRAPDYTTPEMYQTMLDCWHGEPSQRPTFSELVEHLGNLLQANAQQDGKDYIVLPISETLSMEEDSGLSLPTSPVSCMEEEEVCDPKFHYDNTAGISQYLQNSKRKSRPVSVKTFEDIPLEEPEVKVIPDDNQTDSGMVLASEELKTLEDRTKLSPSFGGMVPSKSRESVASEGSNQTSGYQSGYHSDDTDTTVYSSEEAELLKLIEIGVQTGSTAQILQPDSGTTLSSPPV

Compound	IC50 [1] [nM]	IC50 [2] [nM]	IC50 [3] [nM]	IC50 [1, 4] [nM]	IC50 [2, 4] [nM]	IC50 [3, 4] [nM]
COc1cc2c(Oc3ccc(NC(=O)[C@@]4(C(=O)Nc5ccc(F)cc5)[C@H](C)[C@@H]4C)cc3F)ncnc2cc1OCCCN1CCN(C)CC1 [Example 368, (1r,2R,3S)-N-{3-fluoro-4-[(6-(methyloxy)-7-{[3-(4-methylpiperazin-1-yl)propyl]oxy}quinazolin-4-yl)oxy]phenyl}-N′-(4-fluorophenyl)-2,3-dimethylcyclopropane-1,1-dicarboxamide]	< 50	< 50	50 to 500			
COc1cc(CNC(=O)C(=O)Nc2ccc(Oc3ccnc4cc(OCC5CCNCC5)c(OC)cc34)c(F)c2)cc(OC)c1 [Example 269, N-{[3,5-bis(methyloxy)phenyl]methyl}-N′-[3-fluoro-4-({6-(methyloxy)-7-[(piperidin-4-ylmethyl)oxy]quinolin-4-yl}oxy)phenyl]ethanediamide]				< 50	< 50	< 50
COc1cc2c(Oc3ccc(NC(=O)[C@@]4(C(=O)Nc5ccc(F)cc5)[C@H](C)[C@@H]4C)cc3F)ncnc2cc1OCCCN1CCOCC1 [Example 367, (1r,2R,3S)-N-[3-fluoro-4-({6-(methyloxy)-7-[(3-morpholin-4-ylpropyl)oxy]quinazolin-4-yl}oxy)phenyl]-N′-(4-fluorophenyl)-2,3-dimethylcyclopropane-1,1-dicarboxamide]	50 to 500	< 50	50 to 500			
COc1cc2nccc(Oc3ccc(NC(=O)C4(C(=O)Nc5ccc(F)cc5)CN(Cc5ccccc5)C4)cc3)c2cc1OC [Example 352, N-(4-{[6,7-bis(methyloxy)quinolin-4-yl]oxy}phenyl)-N′-(4-fluorophenyl)-1-(phenylmethyl)azetidine-3,3-dicarboxamide]	< 50	500 to 5000	500 to 5000			
COc1cc2nccc(Oc3ccc(NC(=O)C4(C(=O)Nc5ccccc5)CC4)cc3)c2cc1OC [Example 398, N-(4-{[6,7-bis(methyloxy)quinolin-4-yl]oxy}phenyl)-N′-phenylcyclopropane-1,1-dicarboxamide]	< 50	< 50	< 50			
COc1cc2nccc(Oc3ncc(NC(=O)C4(C(=O)NCCc5ccccc5)CC4)cc3Cl)c2cc1OC [Example 302, N-(6-{[6,7-bis(methyloxy)quinolin-4-yl]oxy}-5-chloropyridin-3-yl)-N′-(2-phenylethyl)cyclopropane-1,1-dicarboxamide]	500 to 5000	500 to 5000				
CCO/N=C(\C)C(=O)Nc1ccc(Oc2ccnc3cc(OC)c(OC)cc23)cc1 [Example 109, (2E)-N-(4-{[6,7-bis(methyloxy)quinolin-4-yl]oxy}phenyl)-2-[(ethyloxy)imino] propanamide]	50 to 500	< 50				
COc1cc2nccc(Oc3ccc(NC(=O)[C@@H](NCc4ccccc4)C(C)C)cc3)c2cc1OC [Example 121, N1-(4-{[6,7-bis(methyloxy)quinolin-4-yl]oxy}phenyl)-N2-(phenylmethyl)valinamide]	500 to 5000	500 to 5000				
COc1cc2c(Oc3ccc(NC(=O)C(=O)NCc4ccc(Cl)cc4)cc3F)ccnc2cc1OCC1CCNCC1 [Example 268, N-[(4-chlorophenyl)methyl]-N′-[3-fluoro-4-({6-(methyloxy)-7-[(piperidin-4-ylmethyl)oxy]quinolin-4-yl}oxy)phenyl]ethanediamide]				< 50	< 50	

Further lines, results first:

IC50 [1] [nM]	IC50 [2] [nM]	IC50 [3] [nM]	IC50 [1, 4] [nM]	IC50 [2, 4] [nM]	IC50 [3, 4] [nM]	Compound
< 50	50 to 500	500 to 5000				CCN(CC)CCOc1cc2ncnc(Oc3ccc(NC(=O)C4(C(=O)Nc5ccc(F)cc5)CC4(C)C)cc3F)c2cc1OC (centres unmarked) [Example 378, N-(4-{[7-{[2-(diethylamino)ethyl]oxy}-6-(methyloxy)quinazolin-4-yl]oxy}-3-fluorophenyl)-N′-(4-fluorophenyl)-2,2-dimethylcyclopropane-1,1-dicarboxamide]
< 50	< 50	50 to 500				COc1cc2c(Oc3ccc(NC(=O)[C@]4(C(=O)Nc5ccc(F)cc5)C[C@H]4C)cc3F)ccnc2cc1OCCCN1CCN(C(=O)OC(C)(C)C)CC1 [Example 351, 1,1-dimethylethyl 4-(3-{[4-[(2-fluoro-4-{[((1R,2R)-1-{[(4-fluorophenyl)amino]carbonyl}-2-methylcyclopropyl)carbonyl]amino}phenyl)oxy]-6-(methyloxy)quinolin-7-yl]oxy}propyl)piperazine-1-carboxylate]
< 50	< 50	500 to 5000				CCN(CC)CCOc1cc2nccc(Oc3ccc(NC(=O)C4(C(=O)Nc5ccc(F)cc5)CC4(C)C)cc3F)c2cc1OC (centres unmarked) [Example 375, N-(4-{[7-{[2-(diethylamino)ethyl]oxy}-6-(methyloxy)quinolin-4-yl]oxy}-3-fluorophenyl)-N′-(4-fluorophenyl)-2,2-dimethylcyclopropane-1,1-dicarboxamide]
50 to 500	500 to 5000	50 to 500				COc1cc2nccc(Oc3ccc(NC(=O)C4(C(=O)Nc5ccccc5CN5CCCC5)CC4)cc3)c2cc1OC [Example 395, N-(4-{[6,7-bis(methyloxy)quinolin-4-yl]oxy}phenyl)-N′-[2-(pyrrolidin-1-ylmethyl)phenyl]cyclopropane-1,1-dicarboxamide]
< 50	< 50	< 50				CCN(CC)CCCOc1cc2ncnc(Oc3ccc(NC(=O)[C@]4(C(=O)Nc5ccc(F)cc5)C[C@H]4C)cc3F)c2cc1OC [Example 386, (1R,2R)-N-(4-{[7-{[3-(diethylamino)propyl]oxy}-6-(methyloxy)quinazolin-4-yl]oxy}-3-fluorophenyl)-N′-(4-fluorophenyl)-2-methylcyclopropane-1,1-dicarboxamide]
< 50	< 50	50 to 500				CCN(CC)CCCOc1cc2ncnc(Oc3ccc(NC(=O)C4(C(=O)Nc5ccc(F)cc5)[C@H](C)[C@H]4C)cc3F)c2cc1OC (stereo partly drawn) [Example 389, (2R,3R)-N-(4-{[7-{[3-(diethylamino)propyl]oxy}-6-(methyloxy)quinazolin-4-yl]oxy}-3-fluorophenyl)-N′-(4-fluorophenyl)-2,3-dimethylcyclopropane-1,1-dicarboxamide]
< 50	< 50	50 to 500				COc1cc2c(Oc3ccc(NC(=O)C4(C(=O)Nc5ccc(F)cc5)CCC4)cc3F)ncnc2cc1OCCCN1CCN(C)CC1 [Example 381, N-{3-fluoro-4-[(6-(methyloxy)-7-{[3-(4-methylpiperazin-1-yl)propyl]oxy}quinazolin-4-yl)oxy]phenyl}-N′-(4-fluorophenyl)cyclobutane-1,1-dicarboxamide]
< 50	< 50	50 to 500				COc1cc2c(Oc3ccc(NC(=O)C4(C(=O)Nc5ccc(F)cc5)[C@H](C)[C@H]4C)cc3F)ccnc2cc1OCCCN1CCOCC1 (stereo partly drawn) [Example 370, (2R,3R)-N-[3-fluoro-4-({6-(methyloxy)-7-[(3-morpholin-4-ylpropyl)oxy]quinolin-4-yl}oxy)phenyl]-N′-(4-fluorophenyl)-2,3-dimethylcyclopropane-1,1-dicarboxamide]
< 50	< 50	< 50				COc1cc2c(Oc3ccc(NC(=O)[C@]4(C(=O)Nc5ccc(F)cc5)C[C@H]4C)cc3F)ncnc2cc1OCCCN1CCN(C)CC1 [Example 387, (1R,2R)-N-{3-fluoro-4-[(6-(methyloxy)-7-{[3-(4-methylpiperazin-1-yl)propyl]oxy}quinazolin-4-yl)oxy]phenyl}-N′-(4-fluorophenyl)-2-methylcyclopropane-1,1-dicarboxamide]
< 50	< 50	< 50				COc1cc2c(Oc3ccc(NC(=O)[C@]4(C(=O)Nc5ccc(F)cc5)C[C@@H]4C)cc3F)ccnc2cc1OCCCN1CCNCC1 [Example 364, (1R,2S)-N-[3-fluoro-4-({6-(methyloxy)-7-[(3-piperazin-1-ylpropyl)oxy]quinolin-4-yl}oxy)phenyl]-N′-(4-fluorophenyl)-2-methylcyclopropane-1,1-dicarboxamide]
< 50	50 to 500	50 to 500				CCN(CC)CCOc1cc2nccc(Oc3ccc(NC(=O)[C@@]4(C(=O)Nc5ccc(F)cc5)[C@H](C)[C@@H]4C)cc3F)c2cc1OC [Example 376, (1r,2R,3S)-N-(4-{[7-{[2-(diethylamino)ethyl]oxy}-6-(methyloxy)quinolin-4-yl]oxy}-3-fluorophenyl)-N′-(4-fluorophenyl)-2,3-dimethylcyclopropane-1,1-dicarboxamide]
< 50	< 50	< 50				COc1cc2c(Oc3ccc(NC(=O)C4(C(=O)Nc5ccc(F)cc5)CC4)cc3F)ccnc2cc1OCCCN1CCN(C(C)=O)CC1 [Example 350, N-(4-{[7-{[3-(4-acetylpiperazin-1-yl)propyl]oxy}-6-(methyloxy)quinolin-4-yl]oxy}-3-fluorophenyl)-N′-(4-fluorophenyl)cyclopropane-1,1-dicarboxamide]
